Source: patent US20080318970A1, “Treatment of Infectious Diseases” (priority 2004, published 2008)

Tests used:
[1] = tested on: E. coli, LN 3164; experiment: MIC susceptibility test, microdilution broth method (NCCLS), chemosensitising compound alone; type: cell-based; conditions: 37° C., 16 h
Experimental: Bacteria were sub-cultured on Mueller-Hinton agar plates and incubated over night at 37° C. Pre-warmed Mueller-Hinton broth was inoculated with colonies from the plate and incubated for approximately three hours to achieve a log phase culture. The log phase culture of bacteria was diluted with fresh pre-warmed medium and adjusted to a defined Optical Density (OD) at 600 nm in order to give a final assay concentration of 1×10^4 bacteria/ml medium.
Cell growth was tested using the MIC susceptibility tests by use of the microdilution broth method in accordance to the NCCLS Guidelines (NCCLS Guidelines, Methods for Dilution Antimicrobial Susceptibility Tests for Bacteria That Grow Aerobically; Approved Standard, Sixth Edition, Volume 23; Number 2). A 100% Mueller-Hinton broth and a bacterial concentration of 1×10^4/ml were used.
A log phase culture of bacteria was diluted with fresh pre-warmed medium and adjusted to a defined OD at 600 nm in order to give a final concentration of 1×10^4 bacteria/ml medium in each well. Each chemosensitising compound was added to the bacterial culture in the wells in two-fold dilutions in order to give final concentrations ranging from 8 to 500 μg/ml. Trays were incubated at 37° C. for 16 h. Minimal Inhibitory Concentration, (MIC) is defined as the lowest inhibitory concentration showing no visible growth according to the NCCLS Guidelines.

[2] = tested on: E. faecalis F84; experiment: Checkerboard combination study (FIC index); type: cell-based, Enterococcus faecalis; conditions: MDR isolate
Experimental: Enterococcus faecalis, F84. A multidrug resistant clinical isolate.
(§1) The synergistic effect was studied by checkerboard combination studies exposing cells to 0-64 μg/ml anti-infective agent in the absence or presence of trans-flupenthixol, cis-flupenthixol or trans-clopenthixol. Each experiment was repeated in tripleduplicate. MIC values represent the mean values of two separate experiments,
A log phase culture of bacteria was diluted with fresh pre-warmed medium and adjusted to a defined OD at 600 nm in order to give a final concentration of 1×10^4 bacteria/ml medium in each well. […] Anti-infective agent was added to the bacterial culture in the wells in two-fold dilutions in order to give final concentrations ranging from 0 to 64 μg/ml Trays were incubated at 37° C. for 16 h. Wells were assessed visually for growth. The Fractional Inhibitory Concentration (FIC) was calculated for each anti-infective agent alone and in combination with trans-flupenthixol, cis-flupenthixol or trans-clopenthixol. The following formulae were used to calculate the FIC index:
(§2) FIC=FICchemosensitising compound+FICanti-infective agent
(§3) FICchemosensitising compound=(MICchemosensitising compound+anti-infective agent)/(MICchemosensitising compound)
(§4) FICanti-infective agent=(MICanti-infective agent+chemosensitising compound/(MICanti-Infective agent)
(§5) Synergy was defined as a FIC index of <0.5.

[3] = tested on: E. faecalis F86; experiment: Checkerboard combination study (FIC index); type: cell-based, Enterococcus faecalis; conditions: anti-infective agent Dicloxacillin; isolate susceptible (S)
Experimental: Enterococcus faecalis, F86. Susceptible clinical isolate. No development of resistance.
as §1
(§6) A log phase culture of bacteria was diluted with fresh pre-warmed medium and adjusted to a defined OD at 600 nm in order to give a final concentration of 1×10^4 bacteria/ml medium in each well. Each chemosensitising compound was added to the bacterial culture in the wells in two-fold dilutions in order to give final concentrations ranging from 0 to 8 μg/ml. Anti-infective agent was added to the bacterial culture in the wells in two-fold dilutions in order to give final concentrations ranging from 0 to 64 μg/ml Trays were incubated at 37° C. for 16 h. Wells were assessed visually for growth. The Fractional Inhibitory Concentration (FIC) was calculated for each anti-infective agent alone and in combination with trans-flupenthixol, cis-flupenthixol or trans-clopenthixol. The following formulae were used to calculate the FIC index:
as §2, §3, §4, §5

[4] = tested on: E. coli LN 3164; experiment: Checkerboard combination study (FIC index); type: cell-based; conditions: MDR isolate
Experimental: E. coli, LN 3164. Acr AB-ToIC MDR in vitro-selected mutant. Resistant to tetracycline, beta-lactams, fluoroquinolones, chloramphenicol and aminoglycosides.
as §1, §6, §2, §3, §4, §5

[5] = tested on: E. coli 331ME; experiment: Checkerboard combination study (FIC index); type: cell-based; conditions: MDR isolate
Experimental: E. coli 331 ME. In vivo-selected multidrug resistant clinical isolates of E. coli. Strains were isolated from a patient with severe cystitis/urosepsis. Resistant to tetracycline, beta-lactams, fluoroquinolones, chloramphenicol and aminoglycosides.
as §1, §6, §2, §3, §4, §5

[6] = tested on: P. aeruginosa 432b; experiment: Checkerboard combination study (FIC index); type: cell-based; conditions: isolate resistant (R)
Experimental: P. aeruginosa 432b. Clinical multidrug resistant isolate. Resistant to tetracycline, beta-lactams, fluoroquinolones, and aminoglycosides. Beta-lactamase producing, changes in Penicillin Binding Proteins and changes in Outer Membrane Proteins.
as §1, §6, §2, §3, §4, §5

[7] = Pharmacokinetic studies of Trans-clopenthixol with mice, concentrations in sera; type: in vivo, NMRI mice; conditions: single dose of 0.3 mg per mouse, subcutaneous, 1-24 h (FIG. 4)
Experimental: Pharmacokinetic studies were done with NMRI mice. Concentrations in sera were determined after the administration of a single dose of 0.3 mg per mouse. The drug was administered by subcutaneous injection in the neck region in a volume of 0.2 ml per dose. At 1, 2, 4, 6, and 24 hours after the injection blood samples were obtained from the mice in groups of three. After collection, the blood was centrifuged and the serum was stored at −80° C. until it was analyzed by High Pressure Liquid Chromatography.

[8] = tested on: HIV-1 strain HTLV-IIIB; experiment: Inhibition of HIV-1 replication in MT4 cells (MTT assay); type: cell-based
Experimental: Each experiment was repeated in tripleduplicate. MIC values represent the mean values of two separate experiments.
The HIV-1 strain HTLV-IIIB were propagated in H9 cells at 37° C., 5% CO2 using RPMI 1640 with 10% heat-inactivated foetal calf serum (FCS) and antibiotics (growth medium). Culture supernatant was filtered ([…]), aliquotted, and stored at −80° C. until use. The HIV-1 strain was obtained from NIH AIDS Research and Reference Program.
Compounds were examined for possible antiviral activity against strain 111B of HIV-1 using MT4 cells as target cells. MT4 cells were incubated with virus (0.005 MOI) and growth medium containing the test dilutions of compound(s) for six days in parallel with virus-infected and uninfected control cultures without compound added. Expression of HIV in the cultures was indirectly quantified using the MTT assay as previously described. Compounds mediating less than 30% reduction of HIV expression were considered without biological activity. Compounds were tested in parallel for cytotoxic effect in uninfected MT4 cultures containing the test dilutions of compound as described above. Cultures for test of both antiviral activity and cytotoxic effect were set up in tripleduplicates, […] per culture in micro titre plates.
The 50% inhibitory concentration was determined by interpolation from the plots of percent inhibition versus concentration of compound.
EC50 is defined as the effective concentration that inhibits 50% of viral production, 50% of viral infectivity, or 50% of the virus-induced cytopathic effect.

[9] = anti-infective agent Ciprofloxacin
[10] = anti-infective agent Gentamicin
[11] = anti-infective agent Piperacillin

## OCCN1CCN(CC/C=C2\c3ccccc3Sc3ccc(Cl)cc32)CC1 [trans-clopenthixol]
[1]
  MIC: 16 µg/mL
[2]; anti-infective agent Dicloxacillin
  FIC index: 0.03
[2]; anti-infective agent Vanomycin
  FIC index: 0.06
[3]
  FIC index: 0.25
[4]; [9]
  FIC index: 0.063
[4]; [10]
  FIC index: 0.063
[4]; [11]
  FIC index: 0.063
[5]; [9]
  FIC index: 0.003
[5]; [10]
  FIC index: 0.008
[5]; [11]
  FIC index: 0.063
[6]; [9]
  FIC index: 0.008
[6]; [10]
  FIC index: 0.032
[6]; [11]
  FIC index: 0.063
[7]
  Serum values: less than 300 ng/ml
[8]; alone, at the concentrations used
  antiviral effect (in words): no antiviral or cytotoxic effect
[8]; compound alone, MT4 cells, six days
  EC50: > 3 µM
